Data as given in the NIST ThermoML archive (doi:10.1016/j.jct.2013.10.018).
Numbers after ± are expanded uncertainties.

Conditions: 101.33 kPa, Liquid; for speed of sound: Sing-around technique in a fixed-path interferometer; for mass density: Vibrating tube method

| SMILES | speed of sound (298.15 K) [m/s] | mass density (298.15 K) [kg/m3] | speed of sound (303.15 K) [m/s] | mass density (303.15 K) [kg/m3] | speed of sound (308.15 K) [m/s] | mass density (308.15 K) [kg/m3] | speed of sound (313.15 K) [m/s] | mass density (313.15 K) [kg/m3] | speed of sound (318.15 K) [m/s] | mass density (318.15 K) [kg/m3] | speed of sound (323.15 K) [m/s] | mass density (323.15 K) [kg/m3] |
| --- | --- | --- | --- | --- | --- | --- | --- | --- | --- | --- | --- | --- |
| CCCCCCCCCCO [decan-1-ol] | 1380 ± 3 | 826.36 ± 0.24 | 1363 ± 3 | 822.88 ± 0.24 | 1346 ± 3 | 819.43 ± 0.24 | 1329 ± 3 | 815.97 ± 0.24 | 1312 ± 3 | 812.49 ± 0.24 | 1296 ± 3 | 809.03 ± 0.24 |
| CCCCCCCCO [octan-1-ol] | 1349 ± 3 | 821.74 ± 0.26 | 1332 ± 3 | 818.26 ± 0.26 | 1315 ± 3 | 814.76 ± 0.26 | 1299 ± 3 | 811.24 ± 0.26 | 1282 ± 3 | 807.69 ± 0.26 | 1265 ± 3 | 804.12 ± 0.26 |
